Measurements from patent publication US11229685B2, “Fungal iron acquisition inhibitors and uses thereof” (priority 2013, dated 2022).
Where two headings read alike, the source gives them in different places.

Legend:
[1] = test system: A. fumigatus strain dsRed; format: in vivo, Aspergillus fumigatus; settings: C57BL/6 mice
Procedure: Aspergillus and Fusarium strains were cultured as described above for 2-3 days, and fresh conidia were disrupted with a bacterial L-loop, harvested in 5 ml PBS, and filtered through sterile PBS soaked cotton gauze in a 10 ml syringe to obtain pure conidial suspensions. Conidia were quantified using a hemocytometer and adjusted in PBS to a final stock solution of 15-20,000 conidia/μl. Mice were anaesthetized with 1.25% 2,2,2-tri-bromoethanol in PBS. The corneal epithelium was abraded using a 30-gauge needle, through which a 2 μl injection containing conidia was released into the corneal stroma using a 33-gauge Hamilton syringe. Mice were examined daily under a stereomicroscope for corneal opacification, and quantified by image analysis using Metamorph software as described. At each time point, animals were euthanized by CO2 asphyxiation, and eyes were either placed in 10% formalin and embedded in paraffin, sectioned at 5 μm intervals and stained with periodic acid schiff and hematoxylin (PASH), or were placed in 1 ml of sterile PBS, homogenized and colony forming units (CFU) were quantified by manual count.
For topical drug delivery, compounds were suspended in a commercial eye drop formulation (Alcon laboratories) or in PBS and 8 μl applied topically at 0 h and 6 h post-infection. Lactoferrin (1.25 mg/ml), deferiprone (10 mM), deferroxamine (10 mM), and simvastatin (4 mM) were purchased from Sigma Aldrich (St. Louis, Mo.). BEC (28 mM) was obtained from Cayman chemicals (Ann Arbor, Mich.). E. coli-expressed recombinant human lipocalin-1 was purified as described previously and applied topically at 2 mg/ml. Iron-dextran and deferroxamine were both purchased from Sigma and administered systemically to mice via daily I.P. injections of 5 mg starting at day −2 until mice were euthanized. All animals were bred under specific pathogen-free conditions and maintained according to institutional guidelines.
Growth of the RFP expressing A. fumigatus strain in the cornea was detected using fluorescent microscopy and quantified by Metamorph image analysis. For assessment of fungal viability, whole eyes were homogenized under sterile conditions in 1 ml PBS, using the Mixer Mill MM300 (Retsch) at 33 Hz for 4 min. Subsequently, 100 μl aliquots were plated onto bacteriologic-grade sabouraud dextrose agar plates, incubated for 24 h at 37° C. (Aspergillus) or at 30° C. (Fusarium and Alternaria), and the number of CFUs was determined by direct counting.

A. fumigatus = assay: In vitro human neutrophil:hyphae growth inhibition assay (calcofluor white fluorometry); format: cell-based, Aspergillus fumigatus; settings: for growth of A. fumigatus: incubation in media for 16 h
Procedure: (§1) FIGS. 8(A-G) illustrate a schematic drawing, images, and graphs showing the effect of topical simvastatin and deriprone on fungal infection. A. Statin targeting of fungal HMG-CoA reductase in siderophore biosynthesis. B, C. Effect of statins and iron chelators on growth of A. fumigatus and F. oxysporum in vitro. B. Simvastatin, lovastatin, deferiprone, or deferroxamine were added to growing cultures of A. fumigatus or C. F. oxysporum for 16 h, and hyphal growth was quantified by calcofluor white. D. Growth of A. fumigatus incubated with these compounds in the absence (black bars) or presence (gray bars) of human neutrophils by calcofluor white quantification (data are mean+/−SEM of five replicate wells) E. C57BL/6 mice were infected with A. fumigatus and at 0 and 6 h post-infection 13.4 μg of simvastatin (Sv), deferiprone (11.1 μg), deferroxamine (52.5 μg), Sv+ deferiprone, or Sv+ deferroxamine was applied topically to infected corneas and eyes were imaged at 24 h post-infection. F. Metamorph image analysis was used to quantify fungal dsRed expression and G. eyes were homogenized for CFU analysis. B-D: data are mean+/−SEM of five replicate wells; F, G: data points represent individual corneas.
Human neutrophils were isolated from normal, healthy donors using Ficoll-Paque Plus (GE) density centrifugation as described. Isolated conidia from each A. fumigatus mutant were cultured in 200 μl SDA media (12,500/well) in black-wall 96 well plates with an optically clear bottom (CoStar 3720) until early germ tubes were observed (4-6 h). Wells were washed twice with sterile ddH2O and incubated 16 h with either RPMI media (+ Control), PBS (− Control), or a sublethal dose of human peripheral blood neutrophils in RPMI (0.5−1*10^5/well). At 16 h post-exposure, plates were washed once and stained with 50 μl calcofluor white stain (Binds chitin; Fluka 18909) for 5 min in the dark. Subsequently, plates were washed three times with ddH2O and quantified by fluorometry (360/440 nm; Synergy HT; Biotek).
HMG CoA reductase is required for mevalonate production and can be targeted by statins resulting in decreased siderophore biosynthesis (FIG. 8A). To determine the effect of blocking this pathway on fungal growth, A. fumigatus and Fusarium oxysporum were incubated in media with simvastatin and lovastatin, or with the iron chelators, deferiprone and deferroxamine.

F. oxysporum = assay: In vitro hyphal growth of F. oxysporum with statins and iron chelators (calcofluor white); format: cell-based, Fusarium oxysporum; settings: incubation in media for 16 h; b217 says results similar to A. fumigatus (less growth with statins and deferiprone, not deferroxamine)
Procedure: as §1, with “B-D: data are mean+/−SEM of five replicate wells; F, G: data points represent individual corneas.” left out
Human neutrophils were isolated from normal, healthy donors using Ficoll-Paque Plus (GE) density centrifugation as described. […] Subsequently, plates were washed three times with ddH2O and quantified by fluorometry (360/440 nm; Synergy HT; Biotek). […]

[2] = plus human neutrophils, vs neutrophils alone
[3] = topical 16 μg/8 μl at 0 h and 6 h after infection, vs infected mice without exogenous Lcn-1
[4] = topical 10.4 μg in 8 μl at 0 h and 6 h post-infection, 24 h post-infection, vs vehicle

Compound: Cc1c(O)c(=O)ccn1C [deferiprone, 1,2 dimethyl-3-hydroxypyrid-4-1]
- fungal dsRed emission ([1]; topical at 0 and 6 h post-infection (simvastatin 13.4 μg, deferiprone 11.1 μg, deferroxamine 52.5 μg), 24 h, vs vehicle-treated mice): significantly less
- growth of A. fumigatus (A. fumigatus; no neutrophils): significantly less growth
- A. fumigatus growth in the presence of human neutrophils (A. fumigatus; [2]): inhibited

Compound: CC[C@H](C)C(=O)O[C@H]1C[C@@H](C)C=C2C=C[C@H](C)[C@H](CC[C@@H]3C[C@@H](O)CC(=O)O3)[C@H]21 [lovastatin]
- growth of A. fumigatus (A. fumigatus; no neutrophils): significantly less growth
- A. fumigatus growth in the presence of human neutrophils (A. fumigatus; [2]): inhibited
- growth of Fusarium oxysporum (F. oxysporum): significantly less fungal cell growth

Compound: N=C(NO)NCC[C@H](N)C(=O)O [nNOHA, N^ω-Hydroxy-nor-L-arginine]
- fungal growth (A. fumigatus; 100 μM, no neutrophils, vs RPMI alone): significantly lower than in RPMI alone
- fungal growth when incubated with neutrophils (A. fumigatus; plus human neutrophils, vs neutrophils alone, concentration not given): not significantly different from neutrophils alone

Compound: Lcn-1: E. coli-expressed recombinant human lipocalin-1, siderophore binding protein
- CFU [1, 3]: significantly less
- fungal dsRed [1, 3]: significantly less
- A. fumigatus growth in the presence of neutrophils (A. fumigatus; 4 μg/ml plus human neutrophils, vs neutrophils alone or Lcn-1 alone): significantly less than in the presence of neutrophils alone or with Lcn-1 alone
- fungal growth (A. fumigatus; 4 μg/ml, absence of neutrophils): significantly less
- fungal growth (A. fumigatus; 40 μg/ml, absence of neutrophils): significantly less

Compound: lactoferrin
- CFU [1, 4]: significantly less
- fungal mass (dsRed) [1, 4]: significantly less
